Experimental data published in US11786494B2, “Methods of modulation of branched chain acids and uses thereof” (Baylor College of Medicine, priority 2009, dated 2023).

Experiments:
[1] = molecular target: branched-chain alpha-keto acid dehydrogenase kinase (BDK) (Homo sapiens, UniProt O14874); conditions: Harris et al., 1982; cited from earlier work
[2] = test system: E1α-phospho/E1α, E2, BCATm, BCATc; experiment: Western blotting of BCKD complex and BCAT isozymes in lymphoblast cells; assay type: cell-based, human; conditions: for phosphorylation state of E1α: CIC 1 mM 2 h alone, or together with phenylbutyrate
[3] = molecular target: T1, BCKDC (Homo sapiens, UniProt P12694+P21953); experiment: Leucine oxidation in lymphoblast cells in presence of CIC; assay type: cell-based; design: Transformed lymphoblast cell lines were available from all 5 MSUD patients and from 2 controls to measure BCKDC activity; endogenous in cells; conditions: both control cells, CIC 1 mM
T1 sequence (P12694 46-445): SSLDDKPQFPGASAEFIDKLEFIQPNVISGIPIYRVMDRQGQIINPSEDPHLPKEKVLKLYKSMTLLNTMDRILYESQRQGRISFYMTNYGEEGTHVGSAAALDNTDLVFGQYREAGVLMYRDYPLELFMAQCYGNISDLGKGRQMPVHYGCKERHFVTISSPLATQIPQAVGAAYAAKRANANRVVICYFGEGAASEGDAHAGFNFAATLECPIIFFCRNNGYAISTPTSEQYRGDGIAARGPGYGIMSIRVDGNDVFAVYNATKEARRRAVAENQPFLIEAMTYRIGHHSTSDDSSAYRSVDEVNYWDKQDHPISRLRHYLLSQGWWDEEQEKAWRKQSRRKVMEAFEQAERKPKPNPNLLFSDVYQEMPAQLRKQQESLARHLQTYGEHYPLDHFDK
T1 sequence (P21953 51-392): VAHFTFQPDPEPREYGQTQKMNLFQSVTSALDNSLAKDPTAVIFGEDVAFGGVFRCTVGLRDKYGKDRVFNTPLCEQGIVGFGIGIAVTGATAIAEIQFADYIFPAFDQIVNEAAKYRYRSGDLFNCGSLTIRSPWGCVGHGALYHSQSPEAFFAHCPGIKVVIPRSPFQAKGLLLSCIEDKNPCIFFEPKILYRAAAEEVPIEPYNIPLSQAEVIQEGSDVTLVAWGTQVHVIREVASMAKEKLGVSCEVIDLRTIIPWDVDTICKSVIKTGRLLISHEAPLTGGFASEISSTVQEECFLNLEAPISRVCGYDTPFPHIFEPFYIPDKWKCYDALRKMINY
Method: FIGS. 8A-8C. FIGS. 8A and 8B show leucine oxidation in presence of CIC in lymphoblast cells from control subjects (C-660, C-661) and MSUD patients (P-1, -2, -3, -4, -5) untreated or treated with 1 mM phenylbutyrate for 48 h. Leucine oxidation was measured by using radioactive assay as described in Materials and Methods and is expressed in pmol CO2 released/min/mg protein. CIC was added to all reactions in 1 mM concentration. Values are means±SD (n=3), * p≥0.05, **p≥0.01. […] Images are representative of two independent experiments.
Because phenylbutyrate affects E1α phosphorylation state in vivo (see FIG. 5), leucine oxidation was measured in the same cell lines as in FIG. […] with CIC in the assay. […] Changes in BCAT isoenzyme activity also impacts BCKA production, in specific cases. All patient cell lines accumulated more KIC than observed in control cell lines.

[4] = cited from earlier work; for time to peak concentration: metabolites after a dose of 5 g of phenylbutyrate; for mean peak concentration: metabolites after oral dosing of phenylbutyrate; for elimination half-life: oral phenylbutyrate, estimated
[5] = substrate: O=C(O)CCCc1ccccc1; experiment: E1 catalyzed decarboxylase activity (DCPIP assay); assay type: biochemical; conditions: other: E1 catalyzed decarboxylase activity, [+] Phenylbutyrate
Method: (§1) To determine the effect of phenylbutyrate on individual BCAA catabolic enzymes, activities of mitochondrial branched chain amino transferase (BCATm) and BCKDC enzymes were measured with and without phenylbutyrate using purified recombinant enzymes. BCATm generates the BCKA products that are elevated in MSUD and are the substrates for BCKDC. BCATm activity was measured at pH 8.0 and 298 K as described in Example 2. Kinetics of the E1 decarboxylase reaction with and without phenylbutyrate were determined in the presence of an artificial electron acceptor 2, 6-dichlorophenolindophenol (DCPIP). The assay mixture contained 100 mM potassium phosphate, pH 7.5, 2.0 mM MgCl2, 0.2 mM thiamin diphosphate (ThDP) and 0.1 mM DCPIP. The rate of decarboxylation at 30° C. was measured by monitoring the reduction of the dye at 600 nm (24, 25). For the overall BCKDC activity assay, the enzymes were exchanged into phosphate buffer (30 mM potassium phosphate, pH 7.5) containing 5 mM DTT using a PD-10 column and the enzyme concentrations were calculated from the absorption maxima at 280 nm. The protein complex was reconstituted with E1, lipoylated E2 (lip-E2) and E3 at a molar ratio of 12:1:55, in which lip-E2 exists as a 24-mer. The assay mixture contained 30 mM potassium phosphate pH 7.5, 100 mM NaCl, 3 mM NAD^+, 0.4 mM CoA, 2 mM MgCl2, 2 mM DTT, 0.1% Triton X-100, and 2 mM ThDP. The overall reaction was monitored by formation of NADH at 340 nm. The apparent rate constants (kapp) at different substrate concentrations for all of the above assays were determined from the absorption changes at the individual wavelength maximum. The kapp rate constants were fit using the following equation: kapp=kcat[S]/(Km+[S])

[6] = substrate: O=C(O)CCCc1ccccc1; experiment: Overall BCKDC activity assay (reconstituted E1, lip-E2, E3; NADH formation); assay type: biochemical; conditions: other: Activity of BCKDC, [+] Phenylbutyrate
Method: as §1

[7] = substrate α-ketoisocaproate (KIC)
[8] = substrate α-ketoisovalerate (KIV)

In the case of CC(C)CC(Cl)C(=O)O (stereo not drawn) [CIC, Alpha-chloroisocaproate], the “inhibition of BDK” value [1] is listed as “known inhibitor”, the “phosphorylation state of E1α” value ([2]; both controls and patients 4 and 5) is listed as “decreases” and the “E2 or BCAT isozyme levels” value ([2]; lymphoblasts, CIC) is listed as “did not have any effect”. For the same molecule, the “phosphorylation state of E1α” value ([2]; patients 1, 2 and 3) was “no effect” and the “leucine oxidation activity in the presence of CIC vs alone” value [3] was “higher activity”.

For O=C(O)Cc1ccccc1 [phenylacetate], the “time to peak concentration” value [4] is listed as “around 3.5 h”, the mean peak concentration [4] is listed as 45.3 µg/mL and the elimination half-life [4] is listed as 1.3 h.

In the case of NC(=O)CC[C@H](NC(=O)Cc1ccccc1)C(=O)O [phenylacetateglutamine], the “time to peak concentration” value [4] is given as “around 3.5 h”, the mean peak concentration [4] is given as 62.8 µg/mL and the elimination half-life [4] is given as 2.4 h.

B1: E1 (unphosphorylated) of BCKDC (Homo sapiens) (protein)
chain 1: T1 sequence (P12694 46-445)
chain 2: T1 sequence (P21953 51-392)
With B1 the Km ([5]; with KIC as substrate) was 24.0 ± 2.0 µM, the kcat ([5]; with KIC as substrate) was 0.337 ± 0.025 s⁻¹ and the Km ([5]; with KIV as substrate) was 22.0 ± 2.0 µM. The kcat ([5]; with KIV as substrate) was 0.417 ± 0.0333 s⁻¹ and the Km ([5]; with KMV as substrate) was 21.0 ± 3.0 µM.

B2: BCKDC (Homo sapiens) (protein)
chain 1: T1 sequence (P12694 46-445)
chain 2: T1 sequence (P21953 51-392)
In the case of B2, the Km ([6]; substrate α-keto-β-methylvalerate (KMV)) is reported as 50.0 ± 3.0 µM, the Km [6, 7] is reported as 41.0 ± 5.0 µM and the kcat [6, 7] is reported as 4.25 ± 0.167 s⁻¹. The Km [6, 8] was 40.0 ± 5.0 µM and the kcat [6, 8] was 5.15 ± 0.25 s⁻¹.
